Key:
[1] = biological target: Serine/threonine-protein kinase MARK2 (Homo sapiens) (UniProt Q7KZI7); experiment: Selectivity interaction (Millipore kinase profiler) EUB0000124b MARK2; settings: at 10 µM
[2] = biological target: T1, Serine/threonine-protein kinase haspin (Homo sapiens) (UniProt Q8TF76); experiment: Selectivity interaction (Kinase panel (DSF assay)) EUB0001558a GSG2
T1 sequence (whole entry): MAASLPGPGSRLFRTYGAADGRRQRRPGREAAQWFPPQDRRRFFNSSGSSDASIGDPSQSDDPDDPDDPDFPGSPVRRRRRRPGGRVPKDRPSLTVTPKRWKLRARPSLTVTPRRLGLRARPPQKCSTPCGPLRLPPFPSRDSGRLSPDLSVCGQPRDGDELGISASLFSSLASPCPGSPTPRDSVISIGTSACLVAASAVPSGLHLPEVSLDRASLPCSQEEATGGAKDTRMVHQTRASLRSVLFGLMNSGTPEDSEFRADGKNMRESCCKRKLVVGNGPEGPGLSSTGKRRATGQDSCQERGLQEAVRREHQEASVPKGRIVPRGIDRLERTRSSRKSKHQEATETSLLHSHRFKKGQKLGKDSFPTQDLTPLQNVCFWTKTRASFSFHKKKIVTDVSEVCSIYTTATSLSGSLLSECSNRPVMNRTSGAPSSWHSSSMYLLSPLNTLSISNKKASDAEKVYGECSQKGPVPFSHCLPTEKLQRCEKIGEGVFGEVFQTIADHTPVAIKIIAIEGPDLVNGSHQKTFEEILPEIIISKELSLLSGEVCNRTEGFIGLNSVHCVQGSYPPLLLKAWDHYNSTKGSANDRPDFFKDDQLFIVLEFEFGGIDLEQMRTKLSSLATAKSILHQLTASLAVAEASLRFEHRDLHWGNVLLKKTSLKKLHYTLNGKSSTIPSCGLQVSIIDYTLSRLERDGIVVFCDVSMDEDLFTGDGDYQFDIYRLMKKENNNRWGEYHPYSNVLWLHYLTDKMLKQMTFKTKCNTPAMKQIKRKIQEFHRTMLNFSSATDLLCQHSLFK

[3] = biological target: T2, Serine/threonine-protein kinase RIO1 (Homo sapiens) (UniProt Q9BRS2); experiment: Selectivity interaction (Kinase panel (DSF assay)) EUB0001559a RIOK1
T2 sequence (whole entry): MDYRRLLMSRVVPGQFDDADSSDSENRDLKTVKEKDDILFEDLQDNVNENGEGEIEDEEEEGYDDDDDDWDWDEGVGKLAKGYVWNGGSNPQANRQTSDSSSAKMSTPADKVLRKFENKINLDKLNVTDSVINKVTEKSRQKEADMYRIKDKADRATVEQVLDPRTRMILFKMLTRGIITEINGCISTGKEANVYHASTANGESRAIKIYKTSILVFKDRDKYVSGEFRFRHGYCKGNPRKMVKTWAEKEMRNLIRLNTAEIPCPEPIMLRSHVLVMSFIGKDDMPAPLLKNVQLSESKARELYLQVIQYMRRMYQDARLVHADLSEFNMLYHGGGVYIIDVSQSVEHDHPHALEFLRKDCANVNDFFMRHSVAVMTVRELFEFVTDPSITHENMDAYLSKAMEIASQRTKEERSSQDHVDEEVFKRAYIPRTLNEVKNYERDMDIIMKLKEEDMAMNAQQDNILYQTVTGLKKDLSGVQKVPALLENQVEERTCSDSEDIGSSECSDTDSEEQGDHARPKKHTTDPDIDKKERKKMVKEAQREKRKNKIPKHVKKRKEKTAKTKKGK

[4] = biological target: Ribosomal protein S6 kinase beta-1 (Homo sapiens, UniProt P23443); experiment: Selectivity interaction (Kinase panel (Invitrogen)) EUB0000639a RPS6KB1; settings: at 200 nM
[5] = biological target: Ribosomal protein S6 kinase alpha-2 (Homo sapiens) (UniProt Q15349); experiment: Selectivity interaction (KinomeScan (DiscoverX)) EUB0000092b RPS6KA2; settings: at 10 µM
[6] = biological target: T3, Mitogen-activated protein kinase kinase kinase 5 (Homo sapiens) (UniProt Q99683); experiment: Selectivity interaction (KinomeScan (DiscoverX)) EUB0000092b MAP3K5; settings: at 10 µM
T3 sequence (whole entry): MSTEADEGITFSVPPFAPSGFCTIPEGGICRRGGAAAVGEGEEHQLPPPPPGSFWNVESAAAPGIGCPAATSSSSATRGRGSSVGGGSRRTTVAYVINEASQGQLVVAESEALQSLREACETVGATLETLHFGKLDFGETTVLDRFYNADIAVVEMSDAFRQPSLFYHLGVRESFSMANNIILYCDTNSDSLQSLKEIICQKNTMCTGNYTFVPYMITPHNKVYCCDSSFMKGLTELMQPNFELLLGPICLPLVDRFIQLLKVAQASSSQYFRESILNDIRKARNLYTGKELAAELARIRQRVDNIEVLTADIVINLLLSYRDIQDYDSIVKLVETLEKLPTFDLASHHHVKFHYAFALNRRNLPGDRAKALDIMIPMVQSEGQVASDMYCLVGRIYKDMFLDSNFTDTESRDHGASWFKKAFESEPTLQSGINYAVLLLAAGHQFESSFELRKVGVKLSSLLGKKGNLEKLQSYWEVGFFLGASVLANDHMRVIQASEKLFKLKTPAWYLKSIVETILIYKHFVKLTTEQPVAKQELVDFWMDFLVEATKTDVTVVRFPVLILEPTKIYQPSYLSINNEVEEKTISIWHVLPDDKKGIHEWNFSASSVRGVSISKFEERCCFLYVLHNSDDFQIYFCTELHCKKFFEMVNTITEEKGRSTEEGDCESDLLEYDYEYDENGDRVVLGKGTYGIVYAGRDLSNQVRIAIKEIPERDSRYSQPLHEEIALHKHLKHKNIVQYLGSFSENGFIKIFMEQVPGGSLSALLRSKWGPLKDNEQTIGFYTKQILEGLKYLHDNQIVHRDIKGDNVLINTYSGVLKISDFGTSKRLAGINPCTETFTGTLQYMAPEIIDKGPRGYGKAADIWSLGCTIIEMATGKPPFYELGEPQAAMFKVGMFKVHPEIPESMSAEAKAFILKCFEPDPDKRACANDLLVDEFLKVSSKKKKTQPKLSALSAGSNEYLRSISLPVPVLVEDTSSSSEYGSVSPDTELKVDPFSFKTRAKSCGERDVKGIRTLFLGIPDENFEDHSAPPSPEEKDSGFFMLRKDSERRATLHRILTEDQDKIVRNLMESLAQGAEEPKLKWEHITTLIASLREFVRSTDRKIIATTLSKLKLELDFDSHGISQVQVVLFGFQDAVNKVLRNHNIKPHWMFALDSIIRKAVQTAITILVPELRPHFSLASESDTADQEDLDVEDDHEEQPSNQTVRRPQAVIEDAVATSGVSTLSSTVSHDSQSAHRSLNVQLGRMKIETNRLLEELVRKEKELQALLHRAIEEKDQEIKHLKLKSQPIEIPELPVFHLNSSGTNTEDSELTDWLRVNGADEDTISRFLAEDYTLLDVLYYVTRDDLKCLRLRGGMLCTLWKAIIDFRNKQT

[7] = biological target: Mitogen-activated protein kinase 1 (Homo sapiens, UniProt P28482); experiment: Selectivity interaction (Kinase panel (Z-LYTE Assay)) EUB0001632a MAPK1; settings: at 10 µM
Mitogen-activated protein kinase 1, sequence (P28482 whole entry): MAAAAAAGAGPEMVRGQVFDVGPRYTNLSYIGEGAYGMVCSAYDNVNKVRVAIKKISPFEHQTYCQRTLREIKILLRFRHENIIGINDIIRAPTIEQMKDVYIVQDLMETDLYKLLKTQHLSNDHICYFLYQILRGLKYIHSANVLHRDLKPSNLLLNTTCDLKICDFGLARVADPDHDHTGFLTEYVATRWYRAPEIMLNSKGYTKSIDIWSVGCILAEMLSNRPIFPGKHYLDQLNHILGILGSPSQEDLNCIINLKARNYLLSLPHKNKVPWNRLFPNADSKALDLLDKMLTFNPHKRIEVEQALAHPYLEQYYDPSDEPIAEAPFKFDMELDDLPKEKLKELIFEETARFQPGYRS

Serine/threonine-protein kinase MARK2 (Homo sapiens), sequence (Q7KZI7 whole entry): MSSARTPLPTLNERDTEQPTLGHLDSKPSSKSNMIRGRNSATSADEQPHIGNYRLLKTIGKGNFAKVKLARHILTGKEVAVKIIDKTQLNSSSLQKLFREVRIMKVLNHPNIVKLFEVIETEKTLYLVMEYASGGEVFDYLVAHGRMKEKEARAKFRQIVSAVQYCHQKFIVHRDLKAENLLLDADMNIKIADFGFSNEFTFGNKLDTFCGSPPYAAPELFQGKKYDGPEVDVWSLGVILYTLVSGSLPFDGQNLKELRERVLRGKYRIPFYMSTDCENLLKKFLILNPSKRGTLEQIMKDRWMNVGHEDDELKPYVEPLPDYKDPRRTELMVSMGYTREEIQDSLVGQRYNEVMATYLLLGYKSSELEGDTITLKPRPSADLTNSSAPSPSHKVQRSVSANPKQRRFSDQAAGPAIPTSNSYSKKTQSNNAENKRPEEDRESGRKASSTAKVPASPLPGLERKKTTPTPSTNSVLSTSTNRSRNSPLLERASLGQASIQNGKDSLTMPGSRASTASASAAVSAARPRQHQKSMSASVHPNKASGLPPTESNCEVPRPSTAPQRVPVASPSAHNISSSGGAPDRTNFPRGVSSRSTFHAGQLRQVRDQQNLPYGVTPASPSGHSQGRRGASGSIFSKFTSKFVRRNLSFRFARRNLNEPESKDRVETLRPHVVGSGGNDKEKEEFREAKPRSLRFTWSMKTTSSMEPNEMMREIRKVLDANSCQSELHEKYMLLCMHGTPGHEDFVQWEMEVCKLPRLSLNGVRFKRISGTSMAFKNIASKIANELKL
Ribosomal protein S6 kinase alpha-2 (Homo sapiens), sequence (Q15349 whole entry): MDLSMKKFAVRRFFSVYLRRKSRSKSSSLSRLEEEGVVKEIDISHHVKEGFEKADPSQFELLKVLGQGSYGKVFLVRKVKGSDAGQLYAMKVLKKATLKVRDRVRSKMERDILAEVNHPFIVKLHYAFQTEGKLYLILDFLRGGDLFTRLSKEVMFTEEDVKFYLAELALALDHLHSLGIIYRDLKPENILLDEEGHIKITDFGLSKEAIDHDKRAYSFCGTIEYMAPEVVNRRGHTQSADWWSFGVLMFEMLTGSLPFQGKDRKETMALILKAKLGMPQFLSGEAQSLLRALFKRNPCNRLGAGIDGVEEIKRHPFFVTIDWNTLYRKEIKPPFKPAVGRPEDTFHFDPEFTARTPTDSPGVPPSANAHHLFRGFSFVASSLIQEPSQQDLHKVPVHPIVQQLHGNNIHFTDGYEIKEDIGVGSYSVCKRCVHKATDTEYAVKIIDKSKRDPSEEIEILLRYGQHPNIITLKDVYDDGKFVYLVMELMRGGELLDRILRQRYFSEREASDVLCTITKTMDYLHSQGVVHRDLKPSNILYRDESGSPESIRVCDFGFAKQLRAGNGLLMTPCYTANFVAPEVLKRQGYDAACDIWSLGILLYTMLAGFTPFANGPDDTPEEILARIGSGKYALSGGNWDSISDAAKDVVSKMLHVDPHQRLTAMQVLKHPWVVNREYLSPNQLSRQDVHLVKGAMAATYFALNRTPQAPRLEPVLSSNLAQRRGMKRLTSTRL
Ribosomal protein S6 kinase beta-1, sequence (P23443 whole entry, looked up): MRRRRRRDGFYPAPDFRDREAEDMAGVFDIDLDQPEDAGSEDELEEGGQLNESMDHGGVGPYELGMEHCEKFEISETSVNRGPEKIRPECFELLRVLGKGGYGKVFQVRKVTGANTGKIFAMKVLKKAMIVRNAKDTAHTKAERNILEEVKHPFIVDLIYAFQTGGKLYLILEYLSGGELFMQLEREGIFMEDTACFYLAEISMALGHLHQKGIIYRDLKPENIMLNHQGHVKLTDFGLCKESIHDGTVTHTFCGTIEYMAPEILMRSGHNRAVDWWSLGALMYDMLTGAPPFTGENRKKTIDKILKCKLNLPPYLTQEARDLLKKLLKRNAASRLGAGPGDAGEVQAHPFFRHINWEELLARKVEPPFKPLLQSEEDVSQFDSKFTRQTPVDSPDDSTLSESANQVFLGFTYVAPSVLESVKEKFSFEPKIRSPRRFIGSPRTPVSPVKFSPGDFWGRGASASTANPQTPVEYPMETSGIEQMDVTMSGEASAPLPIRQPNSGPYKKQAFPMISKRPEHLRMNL

`CC(=O)Nc1cccc(-n2c(=O)n(C3CC3)c(=O)c3c(Nc4ccc(I)cc4F)n(C)c(=O)c(C)c32)c1` showed a % of control [1] of 116%.

`CC(C)(O)[C@H](F)CN1Cc2cc(NC(=O)c3cnn4cccnc34)c(N3CCOCC3)cc2C1=O` gave a dTM [2] of 0.8 K.

`CN(C(=O)c1cnn2cccnc12)c1cc2c(cc1N1CCOCC1)C(=O)N(C[C@@H](F)C(C)(C)O)C2` was tested, and the dTM [3] was -0.2 K.

For `CC[C@@H]1[C@H](F)C(=O)N[C@@H]1COc1nccc2cc(C(N)=O)c(OC)cc12` [ZIMLOVISERTIB], the % of inhibition [4] was 17.4%.

`CCC(=O)N1CCN(c2ccc(-n3c(=O)ccc4cnc5ccc(-c6cnc7ccccc7c6)cc5c43)cc2C(F)(F)F)CC1` showed a % of control [5] of 100% and a % of control [6] of 100%.

`Cn1cc(-n2cnc3c(NCc4nc5cc(Cl)c(Cl)cc5[nH]4)nc(N4CCOCC4)nc32)cn1` was tested, and the % of control [7] was -3.31%.

Source: ChEMBL document CHEMBL5465560, “Selectivity Literature for EUbOPEN Chemogenomic Library” (2024)
